This note sets out measurements from article PMC6199744, “Development of Chemical Proteomics for the Folateome and Analysis of the Kinetoplastid Folateome” (ACS Infectious Diseases, 2018).

What all share (assay type): binding
Assay [1] deals with T1, HeLa cell extract proteins (Homo sapiens, UniProt O14744).
T1 construct: endogenous in cells; host or cells: HeLa cell extract

Assay [2] addresses T2, HeLa cell extract proteins (Homo sapiens, UniProt P06753).
T2 construct: endogenous in cells; host or cells: HeLa cell extract

The target in assay [3] is T3, HeLa cell extract proteins (Homo sapiens, UniProt P12004).
T3 construct: endogenous in cells; host or cells: HeLa cell extract

Assay [4] addresses T4, HeLa cell extract proteins (Homo sapiens, UniProt P13073).
T4 construct: endogenous in cells; host or cells: HeLa cell extract

Assay [5] deals with T5, HeLa cell extract proteins (Homo sapiens, UniProt P16278).
T5 construct: endogenous in cells; host or cells: HeLa cell extract
T5 sequence (P16278 29-677): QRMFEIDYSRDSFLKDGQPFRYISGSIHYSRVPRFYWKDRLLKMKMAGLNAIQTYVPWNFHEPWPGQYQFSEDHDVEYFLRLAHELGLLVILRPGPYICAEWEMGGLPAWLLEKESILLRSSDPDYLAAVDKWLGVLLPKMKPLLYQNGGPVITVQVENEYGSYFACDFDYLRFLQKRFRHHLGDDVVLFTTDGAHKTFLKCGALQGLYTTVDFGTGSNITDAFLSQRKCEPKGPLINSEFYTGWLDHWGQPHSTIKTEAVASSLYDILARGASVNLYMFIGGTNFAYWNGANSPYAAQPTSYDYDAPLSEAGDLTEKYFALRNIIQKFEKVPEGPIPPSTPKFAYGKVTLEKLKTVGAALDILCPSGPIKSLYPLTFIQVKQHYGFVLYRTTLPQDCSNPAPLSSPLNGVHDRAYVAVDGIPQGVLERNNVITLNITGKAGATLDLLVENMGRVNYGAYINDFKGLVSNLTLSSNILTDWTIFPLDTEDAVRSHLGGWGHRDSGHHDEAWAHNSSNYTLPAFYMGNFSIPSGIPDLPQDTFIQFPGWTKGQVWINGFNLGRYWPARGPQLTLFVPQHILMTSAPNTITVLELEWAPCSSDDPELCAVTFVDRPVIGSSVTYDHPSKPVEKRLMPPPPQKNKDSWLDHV

Assay [6] deals with T6, HeLa cell extract proteins (Homo sapiens, UniProt P27348).
T6 construct: endogenous in cells; host or cells: HeLa cell extract
T6 sequence (P27348 1-245): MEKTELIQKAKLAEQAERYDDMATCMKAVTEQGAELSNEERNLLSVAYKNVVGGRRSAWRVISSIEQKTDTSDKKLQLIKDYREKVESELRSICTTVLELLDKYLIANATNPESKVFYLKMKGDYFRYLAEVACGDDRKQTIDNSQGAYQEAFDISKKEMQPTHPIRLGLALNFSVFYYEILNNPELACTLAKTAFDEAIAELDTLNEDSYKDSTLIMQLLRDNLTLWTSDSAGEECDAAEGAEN

The target of assay [7] is T7, HeLa cell extract proteins (Homo sapiens, UniProt P29692).
T7 construct: endogenous in cells; host or cells: HeLa cell extract
T7 sequence (P29692 1-281): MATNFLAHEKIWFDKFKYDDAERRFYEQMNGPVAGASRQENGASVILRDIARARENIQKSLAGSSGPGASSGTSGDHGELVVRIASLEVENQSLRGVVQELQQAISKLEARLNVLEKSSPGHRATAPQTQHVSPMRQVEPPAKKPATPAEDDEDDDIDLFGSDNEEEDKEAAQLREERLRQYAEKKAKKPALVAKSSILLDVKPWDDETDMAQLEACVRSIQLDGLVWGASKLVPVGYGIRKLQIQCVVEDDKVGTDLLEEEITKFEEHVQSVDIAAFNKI

Assay [8] deals with T8, HeLa cell extract proteins (Homo sapiens, UniProt P49368).
T8 construct: endogenous in cells; host or cells: HeLa cell extract
T8 sequence (P49368 1-545): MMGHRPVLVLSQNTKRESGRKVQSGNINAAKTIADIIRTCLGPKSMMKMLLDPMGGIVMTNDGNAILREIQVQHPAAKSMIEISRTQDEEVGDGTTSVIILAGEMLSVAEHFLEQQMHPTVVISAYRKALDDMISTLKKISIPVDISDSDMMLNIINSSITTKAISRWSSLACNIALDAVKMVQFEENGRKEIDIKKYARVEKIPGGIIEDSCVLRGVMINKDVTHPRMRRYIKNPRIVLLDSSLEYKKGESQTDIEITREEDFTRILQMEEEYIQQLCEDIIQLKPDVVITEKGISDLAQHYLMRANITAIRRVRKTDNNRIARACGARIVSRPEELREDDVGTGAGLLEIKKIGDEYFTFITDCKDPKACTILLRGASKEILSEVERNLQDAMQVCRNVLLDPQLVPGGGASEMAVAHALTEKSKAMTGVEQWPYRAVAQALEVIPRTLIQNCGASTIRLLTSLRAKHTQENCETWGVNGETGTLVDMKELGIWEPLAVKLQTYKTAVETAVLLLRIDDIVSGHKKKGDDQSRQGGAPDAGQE

In assay [9] the target is T9, HeLa cell extract proteins (Homo sapiens, UniProt P49773).
T9 construct: endogenous in cells; host or cells: HeLa cell extract

In assay [10] the target is T10, HeLa cell extract proteins (Homo sapiens, UniProt P63167).
T10 construct: endogenous in cells; host or cells: HeLa cell extract

The target in assay [11] is T11, HeLa cell extract proteins (Homo sapiens, UniProt Q04837).
T11 construct: endogenous in cells; host or cells: HeLa cell extract
T11 sequence (Q04837 17-148): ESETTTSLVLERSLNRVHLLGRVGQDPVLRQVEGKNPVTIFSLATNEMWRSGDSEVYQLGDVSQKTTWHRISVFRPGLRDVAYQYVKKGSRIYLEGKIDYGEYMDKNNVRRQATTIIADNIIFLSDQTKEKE

The target of assay [12] is T12, HeLa cell extract proteins (Homo sapiens, UniProt Q13263).
T12 construct: endogenous in cells; host or cells: HeLa cell extract

Assay [13] concerns the target T13, HeLa cell extract proteins (Homo sapiens, UniProt Q99439).
T13 construct: endogenous in cells; host or cells: HeLa cell extract
T13 sequence (Q99439 1-309): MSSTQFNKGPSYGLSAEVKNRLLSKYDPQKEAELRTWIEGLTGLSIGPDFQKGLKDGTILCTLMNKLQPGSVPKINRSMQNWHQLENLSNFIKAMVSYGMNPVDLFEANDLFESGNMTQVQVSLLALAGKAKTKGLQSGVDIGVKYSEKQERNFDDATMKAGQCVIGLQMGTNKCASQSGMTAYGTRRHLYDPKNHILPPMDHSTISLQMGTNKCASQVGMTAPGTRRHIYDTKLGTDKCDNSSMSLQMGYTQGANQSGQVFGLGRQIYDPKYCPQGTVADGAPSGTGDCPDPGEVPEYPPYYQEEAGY

Like-named read-outs stand apart in the source and are kept apart here.

T12 sequence (Q13263 whole entry): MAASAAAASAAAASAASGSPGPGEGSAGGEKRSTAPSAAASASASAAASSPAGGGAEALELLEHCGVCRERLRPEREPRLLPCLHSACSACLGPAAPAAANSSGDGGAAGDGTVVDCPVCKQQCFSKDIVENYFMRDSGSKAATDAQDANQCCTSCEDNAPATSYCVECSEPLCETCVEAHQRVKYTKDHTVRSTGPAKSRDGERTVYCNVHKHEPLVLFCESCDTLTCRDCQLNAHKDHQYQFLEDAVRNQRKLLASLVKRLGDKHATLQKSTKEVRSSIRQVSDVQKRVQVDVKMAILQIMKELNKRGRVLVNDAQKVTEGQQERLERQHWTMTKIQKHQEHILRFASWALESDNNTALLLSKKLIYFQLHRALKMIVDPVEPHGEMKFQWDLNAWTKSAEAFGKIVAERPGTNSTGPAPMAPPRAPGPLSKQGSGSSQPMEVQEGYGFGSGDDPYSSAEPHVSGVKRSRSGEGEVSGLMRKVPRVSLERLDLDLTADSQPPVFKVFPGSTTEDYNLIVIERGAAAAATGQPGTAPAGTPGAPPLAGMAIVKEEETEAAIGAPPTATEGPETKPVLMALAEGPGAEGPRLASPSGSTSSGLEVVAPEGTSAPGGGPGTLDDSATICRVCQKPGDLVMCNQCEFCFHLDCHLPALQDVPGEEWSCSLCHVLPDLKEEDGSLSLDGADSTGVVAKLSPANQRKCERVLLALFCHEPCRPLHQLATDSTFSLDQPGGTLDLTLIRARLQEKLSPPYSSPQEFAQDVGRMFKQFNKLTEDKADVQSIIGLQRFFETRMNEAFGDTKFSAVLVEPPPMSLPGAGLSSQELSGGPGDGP
T3 sequence (P12004 whole entry): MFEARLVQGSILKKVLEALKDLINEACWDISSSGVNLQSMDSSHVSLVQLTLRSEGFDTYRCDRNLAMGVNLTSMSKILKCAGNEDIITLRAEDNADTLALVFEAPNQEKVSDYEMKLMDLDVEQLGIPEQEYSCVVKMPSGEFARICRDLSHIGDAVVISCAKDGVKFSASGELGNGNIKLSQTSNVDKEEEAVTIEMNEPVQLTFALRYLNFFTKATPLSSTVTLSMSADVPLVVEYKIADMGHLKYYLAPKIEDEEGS
T10 sequence (P63167 whole entry): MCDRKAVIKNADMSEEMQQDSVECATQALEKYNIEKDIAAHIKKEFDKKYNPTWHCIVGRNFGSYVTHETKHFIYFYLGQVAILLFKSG
T9 sequence (P49773 whole entry): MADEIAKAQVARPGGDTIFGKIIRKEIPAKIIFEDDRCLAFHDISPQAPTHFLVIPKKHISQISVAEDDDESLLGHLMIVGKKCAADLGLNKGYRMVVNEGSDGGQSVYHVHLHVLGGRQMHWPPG
T4 sequence (P13073 23-169): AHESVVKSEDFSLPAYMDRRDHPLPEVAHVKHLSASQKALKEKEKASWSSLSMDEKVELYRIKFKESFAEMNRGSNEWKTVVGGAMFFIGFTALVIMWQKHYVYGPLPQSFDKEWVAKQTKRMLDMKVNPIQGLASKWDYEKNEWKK
T2 sequence (P06753 whole entry): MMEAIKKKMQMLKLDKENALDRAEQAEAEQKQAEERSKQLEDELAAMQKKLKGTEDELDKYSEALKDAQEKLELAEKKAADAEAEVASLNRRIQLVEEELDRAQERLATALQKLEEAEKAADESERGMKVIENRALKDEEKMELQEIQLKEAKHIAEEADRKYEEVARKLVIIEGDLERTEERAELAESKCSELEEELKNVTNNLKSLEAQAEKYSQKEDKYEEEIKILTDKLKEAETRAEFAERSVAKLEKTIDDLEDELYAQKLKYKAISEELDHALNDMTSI
T1 sequence (O14744 whole entry): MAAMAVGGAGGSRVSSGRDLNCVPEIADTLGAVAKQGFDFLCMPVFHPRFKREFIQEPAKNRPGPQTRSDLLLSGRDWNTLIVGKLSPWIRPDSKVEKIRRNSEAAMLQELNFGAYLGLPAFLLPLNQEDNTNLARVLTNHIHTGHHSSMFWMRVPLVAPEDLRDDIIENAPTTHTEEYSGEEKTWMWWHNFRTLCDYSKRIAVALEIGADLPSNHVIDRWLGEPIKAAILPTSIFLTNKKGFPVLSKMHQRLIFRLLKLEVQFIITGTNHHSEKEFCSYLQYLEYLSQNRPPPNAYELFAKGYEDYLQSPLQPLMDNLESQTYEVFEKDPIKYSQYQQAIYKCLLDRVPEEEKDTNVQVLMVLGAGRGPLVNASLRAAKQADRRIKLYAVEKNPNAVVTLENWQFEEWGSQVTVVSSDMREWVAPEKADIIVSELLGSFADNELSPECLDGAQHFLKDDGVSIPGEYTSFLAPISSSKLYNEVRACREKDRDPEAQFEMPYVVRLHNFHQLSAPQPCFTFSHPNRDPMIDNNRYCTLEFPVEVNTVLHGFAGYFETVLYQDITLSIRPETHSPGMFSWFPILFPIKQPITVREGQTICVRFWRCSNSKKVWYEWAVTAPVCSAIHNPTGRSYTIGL

On to `CCCCCCOc1cccc(Cc2cnc(N)nc2N)c1` [compound 2], for which the “fold changes relative to vehicle control” value in assay [1] (protein PRMT5, HeLa) was 1.12; in [2] (protein TPM3, HeLa), 2.05; in [3] (protein PCNA, HeLa) it was 1.65; in assay [4] (HeLa, protein COX4I1) it was 1.21; in assay [5] (captured protein GLB1, HeLa), 0.9; in [6] (protein YWHAQ, HeLa) it was 2.29. In addition, the “fold changes relative to vehicle control” value in assay [7] (protein EEF1D, HeLa) is reported as 1.8; in assay [8] (protein CCT3, HeLa) it was 1.72; in assay [9] (HeLa, protein HINT1) it was 0.99; in assay [10] (protein DYNLL1, HeLa), 1.05; in [11] (HeLa, protein SSBP1), 0.95; in assay [12] (protein TRIM28, HeLa) it was 1.44. For the same compound, the “fold changes relative to vehicle control” value in assay [13] (HeLa, protein CNN2) is recorded as 0.95.
Regarding `NCCOCCOCC(=O)Nc1nc2ncc(CNc3ccc(C(=O)NC(CCC(=O)O)C(=O)O)cc3)nc2c(=O)[nH]1` (stereo not drawn) [compound 6], the “fold changes relative to vehicle control” value came out at 1.21 in assay [1] (protein PRMT5, HeLa); 1.18 in assay [2] (protein TPM3, HeLa); 1.47 in assay [3] (HeLa, captured protein PCNA); 1.04 in assay [4] (HeLa, protein COX4I1); 0.99 in assay [5] (HeLa, captured protein GLB1); 1.15 in assay [6] (HeLa, protein YWHAQ). Also, the “fold changes relative to vehicle control” value in assay [7] (protein EEF1D, HeLa) amounted to 1.09; in [8] (protein CCT3, HeLa) it was 1.16; in assay [9] (HeLa, captured protein HINT1), 1.33; in assay [10] (HeLa, captured protein DYNLL1), 1.14; in assay [11] (HeLa, protein SSBP1), 0.96; in assay [12] (protein TRIM28, HeLa), 1.02. Further, the “fold changes relative to vehicle control” value in assay [13] (HeLa, captured protein CNN2) is 0.93.
For `CCCCCCOc1ccc(Cc2cnc(N)nc2N)cc1` [compound 1], the “fold changes relative to vehicle control” value in assay [1] (protein PRMT5, HeLa) is 0.93; in assay [2] (protein TPM3, HeLa) it was 1.18; in assay [3] (protein PCNA, HeLa) it was 1.18; in assay [4] (HeLa, protein COX4I1), 1.03; in assay [5] (captured protein GLB1, HeLa), 0.96; in [6] (protein YWHAQ, HeLa) it was 1.54. For the same compound, the “fold changes relative to vehicle control” value was found to be 1.26 in [7] (protein EEF1D, HeLa); 1.22 in assay [8] (protein CCT3, HeLa); 1.03 in assay [9] (HeLa, protein HINT1); 1.08 in [10] (protein DYNLL1, HeLa); 1.05 in assay [11] (HeLa, protein SSBP1); 1.12 in assay [12] (protein TRIM28, HeLa). In addition, in assay [13] (HeLa, protein CNN2), the “fold changes relative to vehicle control” value was 0.81.
As to `Nc1nc2c(c(=O)[nH]1)N(C=O)C(CNc1ccc(C(=O)N[C@@H](CCC(=O)O)C(=O)O)cc1)CN2` (stereo partly drawn) [LEU, leucovorin], the “fold changes relative to vehicle control” value in [1] (protein PRMT5, HeLa) stood at 0.96; in [2] (protein TPM3, HeLa), 0.93; in assay [3] (HeLa, captured protein PCNA), 1.25; in assay [4] (HeLa, protein COX4I1), 0.9; in assay [5] (HeLa, captured protein GLB1), 1.01; in [6] (HeLa, protein YWHAQ), 1.08. The “fold changes relative to vehicle control” value in assay [7] (protein EEF1D, HeLa) turned out to be 0.99; in assay [8] (protein CCT3, HeLa), 0.88; in [9] (HeLa, captured protein HINT1), 1.12; in assay [10] (HeLa, captured protein DYNLL1), 1.05; in assay [11] (HeLa, protein SSBP1), 1.07; in assay [12] (protein TRIM28, HeLa) it was 0.88. Also, the “fold changes relative to vehicle control” value in assay [13] (HeLa, captured protein CNN2) was 0.97.
In the case of `NCCCNc1ccc(C(=O)NC(CCC(=O)O)C(=O)O)cc1` (stereo not drawn) [compound 7], the “fold changes relative to vehicle control” value in assay [1] (protein PRMT5, HeLa) came out at 1.05; in assay [2] (protein TPM3, HeLa) it was 1.1; in [3] (HeLa, captured protein PCNA) it was 1.02; in [4] (HeLa, protein COX4I1), 1.17; in assay [5] (HeLa, captured protein GLB1), 1.07; in assay [6] (HeLa, protein YWHAQ), 0.86. The “fold changes relative to vehicle control” value in assay [7] (protein EEF1D, HeLa) amounted to 0.93; in assay [8] (protein CCT3, HeLa) it was 1; in assay [9] (HeLa, captured protein HINT1), 1.33; in assay [10] (HeLa, captured protein DYNLL1), 1.18; in [11] (HeLa, protein SSBP1), 0.95; in assay [12] (protein TRIM28, HeLa) it was 0.9. Also, in [13] (HeLa, captured protein CNN2), the “fold changes relative to vehicle control” value came to 1.33.
With `Nc1nc2[nH]cc(CCc3ccc(C(=O)N[C@@H](CCC(=O)O)C(=O)O)cc3)c2c(=O)[nH]1` [PTX, pemetrexed], the “fold changes relative to vehicle control” value is recorded as 0.99 in [1]; 0.89 in assay [2]; 1.29 in [3]; 0.98 in [4]; 0.99 in assay [5]; 1.05 in assay [6]. Moreover, the “fold changes relative to vehicle control” value in [7] was found to be 1.01; in [8], 1; in assay [9], 0.77; in assay [10] it was 1.06; in [11], 1; in assay [12], 0.97. Besides, in assay [13], the “fold changes relative to vehicle control” value turned out to be 0.96.
